Consider 16 compounds from patent publication US20020128256A1, “Methods for the treatment or prevention of inflammatory diseases characterized by abnormal cell proliferation” (priority 1997, published 2002).

Like-named read-outs stand apart in the source and are kept apart here.

The target of series [1] is T1, Gardos channel of erythrocytes (Homo sapiens, UniProt O15554).
T1 construct: endogenous in cells; host or cells: erythrocytes
Briefly: Gardos Channel Assay. It counts as cell-based. The following applies: for inhibition at 10 µM: read-out: Gardos Channel Assay Inhibition (%).

Series [2] concerns NIH 3T3 mouse fibroblast cells. Briefly: Mitogenic Assay (mitogen-induced cell proliferation). The class given is cell-based. The note with it: for inhibition at 10 µM: Mus musculus, read-out: Mitogenic Assay Inhibition (%); for inhibition at 10 µM / Mitogenic Assay Inhibition (%): measured at 10 μM compound, NIH 3T3 cells; for IC50: NIH 3T3 mouse fibroblast cells, mitogen-induced proliferation, read-out: Mitogenic Assay IC50.

The mark [3] stands for this setting: erythrocytes, read-out: Gardos Channel Assay IC50.

T1 sequence (O15554 whole entry): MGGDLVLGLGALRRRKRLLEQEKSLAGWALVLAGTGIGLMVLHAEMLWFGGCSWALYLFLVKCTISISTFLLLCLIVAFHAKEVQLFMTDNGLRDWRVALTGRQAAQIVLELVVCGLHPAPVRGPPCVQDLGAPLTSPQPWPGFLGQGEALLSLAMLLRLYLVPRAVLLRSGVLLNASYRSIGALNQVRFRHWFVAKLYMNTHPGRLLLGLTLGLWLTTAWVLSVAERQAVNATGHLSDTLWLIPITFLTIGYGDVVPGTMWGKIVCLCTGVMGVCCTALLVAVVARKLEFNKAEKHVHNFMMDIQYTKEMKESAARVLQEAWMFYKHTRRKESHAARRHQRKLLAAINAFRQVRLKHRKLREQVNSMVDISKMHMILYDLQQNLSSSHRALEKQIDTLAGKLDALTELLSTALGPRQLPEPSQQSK

`CC(=O)OC1CC(c2ccccc2)(c2ccccc2)c2ccccc21` (stereo not shown) [Compound 7, 1-Acetoxy-3,3-diphenylindane] returned a melting point of 90 °C. The IC50 in series [1] amounted to 1150 nM. For the same compound, the inhibition at 10 µM in series [1] (measured at 10 μM compound) is 88%.
Compound `O/N=C1\CC(c2ccccc2)(c2ccccc2)c2ccccc21` [Compound 4, 1-N-Oxime-3,3-Diphenylindane] showed a melting point of 138 to 141 °C. The IC50 in series [1] (setting [3]) is 1350 nM. The inhibition at 10 µM in series [1] (measured at 10 μM compound) was 100%.
`NC1=Nc2ccccc2C1(c1ccccc1)c1ccccc1` [Compound 1]: the figures for the inhibition at 10 µM in series [2] (NIH3T3) and in series [1] (measured at 10 μM compound) were 97% and 98%, respectively. For the same compound, the IC50 was determined as 0.7 µM in series [2] (NIH3T3) and 419 nM in series [1] (setting [3]).
`Clc1ccccc1COC1CC(c2ccccc2)(c2ccccc2)c2ccccc21` (stereo not drawn) [Compound 18, 3,3-Diphenyl-1-indanyl α-(2-chlorotoluyl) ether]: the “Mitogenic Assay Inhibition (%)” value in series [2] amounted to 73.0%. In addition, the “Gardos Channel Assay Inhibition (%)” value in series [1] (measured at 10 μM compound) is 0%.
With `N#CCC1C(=O)c2ccccc2C1(c1ccccc1)c1ccccc1` (stereo not shown) [Compound 9, 2-cyanomethyl-3,3-diphenylindanone], the IC50 in series [1] (setting [3]) stood at 505 nM. For the same compound, the inhibition at 10 µM in series [1] amounted to 100%.
As to “2-(Ethyl-2′-(1,3-dioxolane))-1-hydroxy-3,3-diphenylindene [Compound 20]”, the “Mitogenic Assay Inhibition (%)” value in series [2] is recorded as 81.0%. Also, the “Gardos Channel Assay Inhibition (%)” value in series [1] (measured at 10 μM compound) amounted to 0%.
Regarding `N#CCC1C(=O)c2cc(Cl)ccc2C1(c1ccc(Cl)cc1)c1ccc(Cl)cc1` (stereo not shown) [Compound 10, 6-Chloro-2-cyanomethyl-3,3-di(4′-chlorophenyl)indanone], in series [2] (NIH3T3), the inhibition at 10 µM worked out at 98% and the IC50 amounted to 3.3 µM. In addition, the inhibition at 10 µM in series [1] (measured at 10 μM compound) worked out at 49.5%.
For `c1ccc(C2(c3ccccc3)CC(OCc3ccc4ccccc4c3)c3ccccc32)cc1` (stereo not shown) [Compound 16, 3,3-Diphenyl-1-indanyl 2-naphthylmethyl ether], the inhibition at 10 µM stood at 75% in series [2] (NIH3T3) and 0% in series [1] (measured at 10 μM compound).
On to `O=C1CC(c2ccccc2)(c2ccccc2)c2ccccc21` [Compound 2, 3,3-Diphenylindanone], for which the IC50 in series [1] (setting [3]) was found to be 1010 nM. The inhibition at 10 µM in series [1] (measured at 10 μM compound) stood at 100%.
As to “3,3-Diphenyl-1-indanyl α-(4-methyltoluate) ether [Compound 17]”, the “Mitogenic Assay Inhibition (%)” value in series [2] was determined as 76.0%. Also, in series [1] (measured at 10 μM compound), the “Gardos Channel Assay Inhibition (%)” value stood at 0%.
On to `COC(=O)CC1C(=O)c2ccccc2C1(c1ccccc1)c1ccccc1` (stereo not shown) [Compound 15, 3,3-Diphenylindanone-2-methyl acetate], for which the figures for the IC50 in series [2] and in series [1] (setting [3]) were 7.5 µM and 2900 nM, respectively. Also, the “Mitogenic Assay Inhibition (%)” value in series [2] is 80.0%. In addition, the “Gardos Channel Assay Inhibition (%)” value in series [1] (measured at 10 μM compound) is given as 54.8%.
Turning to `NC(=O)CC1C(=O)c2ccccc2C1(c1ccccc1)c1ccccc1` (stereo not shown) [Compound 12, 2-Acetamide-3,3-diphenylindanone], the melting point lay within 169 to 171 °C. For the same compound, the IC50 in series [1] (setting [3]) turned out to be 189 nM. Besides, the inhibition at 10 µM in series [1] (measured at 10 μM compound) is 99.5%.
Take `OC1CC(c2ccccc2)(c2ccccc2)c2ccccc21` (stereo not shown) [Compound 3, 1-Hydroxy-3,3-Diphenylindane]: the melting point fell in the range of 133 to 135 °C. Also, in series [1] (setting [3]), the IC50 is 819 nM. Besides, in series [1], the inhibition at 10 µM was found to be 100%.
Turning to `N#CC1OC12CC(c1ccccc1)(c1ccccc1)c1ccccc12` (stereo not shown) [Compound 5, Spiro[3,3-diphenyl-2,3-dihydro(1H)indene-1,3′-2′-cyanooxirane]], in series [2], the “Mitogenic Assay Inhibition (%)” value was found to be 29.0%. Also, the “Gardos Channel Assay Inhibition (%)” value in series [1] (measured at 10 μM compound) came out at 67.3%.
`O=C1c2ccccc2C(c2ccccc2)(c2ccccc2)C1CCCO` (stereo not shown) [Compound 19, 3-(3′,3′-diphenyl-2′-indanyl-1′-one)propanol] had a melting point of 98 °C. In series [1], half-maximal inhibition (IC50) required 5950 nM and the inhibition at 10 µM worked out at 43.7%.
Turning to `C=CCOC1c2ccccc2C(c2ccccc2)(c2ccccc2)C1CC=C` (stereo not shown) [Compound 6, 2-(2′-Propenyl)-1-(2′-propenoxy)-3,3-diphenylindane], in series [2], the IC50 came to 3.4 µM and the “Mitogenic Assay Inhibition (%)” value is 90.0%. Further, the “Gardos Channel Assay Inhibition (%)” value in series [1] (measured at 10 μM compound) was determined as 35.0%.
